Common to all, as to test: minimal inhibitory concentration in Sabouraud medium
Assay type in all cases: cell-based

For assay [1], the system named is Saccharomyces cerevisiae OKI.1282. To be noted: Saccharomyces cerevisiae. An excerpt: Saccharomyces cerevisiae OKI.1282
(§1) As a medium Saboroud medium was employed.

A further assay relates to Candida albicans CBS.562. To be noted: Candida albicans.
Source text: Candida albicans CBS.562 "2"
as §1

Assay [2] deals with Aspergillus niger CBS.12648. To be noted: Aspergillus niger.
Source text: Aspergillus niger CBS.12648
as §1

Assay [3] relates to Penicillium digitatum CBS.31948. To be noted: Penicillium digitatum.
Source text: Penicillium digitatum CBS.31948
as §1

Assay [4] deals with Sporotrichum schenkii CBS.34035. To be noted: Sporotrichum.
Source text: Sporotrichum schenkii CBS.34035
as §1

In assay [5] the test system is Trichophyton rubrum CBS.30338. To be noted: Trichophyton rubrum.
Source text: Trichophyton rubrum CBS.30338
as §1

Assay [6] has as its system Trichophyton mentagrophytes CBS.50148. To be noted: Trichophyton mentagrophytes.
Source text: Trichophyton mentagrophytes CBS.50148
as §1

In assay [7] the test system is Epidermophyton floccosum OKI/IV. To be noted: Epidermophyton floccosum.
Source text: Epidermophyton floccosum OKI/IV.
as §1

[8] abbreviates: CBS.50148, 72 h, 72 hours, read-out: minimal inhibitory concentration.
The mark [9] stands for this setting: CBS.50148, 144 h, 144 hours, read-out: minimal inhibitory concentration.
[10] abbreviates: CBS.50148, 288 h, 288 hours, read-out: minimal inhibitory concentration.
Where [11] appears, read: 72 h, read-out: minimal inhibitory concentration.
Where [12] appears, read: 144 h, read-out: minimal inhibitory concentration.
The mark [13] stands for this setting: 288 h, read-out: minimal inhibitory concentration.
[14] abbreviates: CBS.50148, read-out: Minimal inhibitory concentration inhibiting the growth.
The mark [15] stands for this setting: read-out: Minimal inhibitory concentration inhibiting the growth.

Converted amounts (≈) assume the structure as drawn. Where two headings read alike, the source gives them in different places.

In the case of `Cc1cccc(N2C(=O)CC(S(=O)(=O)C3CCCCC3)C2=O)c1` (stereo not drawn) [1-m(tolyl)-3-cyclohexyl-sulfonyl-pyrrolidine-2,5-dione], the MIC in assay [1] (OKI.1282, 24 h, 24 hours) was 25 µg/mL (≈ 74.5 µM); in assay [1] (OKI.1282, 48 h, 48 hours), 25 µg/mL (≈ 74.5 µM); against Candida albicans CBS.562 (CBS.562, 24 h, 24 hours) it was 50 µg/mL (≈ 149 µM); in the assay on Candida albicans CBS.562 (CBS.562, 48 h, 48 hours) it was 100 µg/mL (≈ 298 µM); in assay [2] (CBS.12648, 72 h, 72 hours), 75 µg/mL (≈ 224 µM); in assay [2] (CBS.12648, 144 h, 144 hours), 100 µg/mL (≈ 298 µM). Moreover, the MIC in assay [2] (CBS.12648, 288 h, 288 hours) stood at 150 µg/mL (≈ 447 µM); in assay [3] (CBS.31948, 72 h, 72 hours), 10 µg/mL (≈ 29.8 µM); in assay [3] (CBS.31948, 144 h, 144 hours), 25 µg/mL (≈ 74.5 µM); in assay [3] (CBS.31948, 288 h, 288 hours) it was 25 µg/mL (≈ 74.5 µM); in assay [4] (CBS.34035, 72 h, 72 hours) it was 10 µg/mL (≈ 29.8 µM); in assay [4] (CBS.34035, 144 h, 144 hours) it was 25 µg/mL (≈ 74.5 µM). In addition, the MIC stood at 50 µg/mL (≈ 149 µM) in assay [4] (CBS.34035, 288 h, 288 hours); 5 µg/mL (≈ 14.9 µM) in assay [5] (CBS.30338, 72 h, 72 hours); 10 µg/mL (≈ 29.8 µM) in assay [5] (CBS.30338, 144 h, 144 hours); 25 µg/mL (≈ 74.5 µM) in assay [5] (CBS.30338, 288 h, 288 hours); 5 µg/mL (≈ 14.9 µM) in assay [6] (setting [8]); 25 µg/mL (≈ 74.5 µM) in assay [6] (setting [9]). Also, the MIC in assay [6] (setting [10]) stood at 50 µg/mL (≈ 149 µM); in assay [7] (setting [11]), 5 µg/mL (≈ 14.9 µM); in assay [7] (setting [12]) it was 10 µg/mL (≈ 29.8 µM); in assay [7] (setting [13]), 25 µg/mL (≈ 74.5 µM).
Consider `O=C1CC(S(=O)(=O)C2CCCCC2)C(=O)N1c1ccc([N+](=O)[O-])cc1` (stereo not drawn) [1-(p-nitrophenyl)-3-cyclohexylsulfonyl-pyrrolidine-2,5-dione], for which the MIC in assay [1] (OKI.1282, 24 h, 24 hours) stood at 25 µg/mL (≈ 68.2 µM); in assay [1] (OKI.1282, 48 h, 48 hours), 50 µg/mL (≈ 136 µM); with Candida albicans CBS.562 (CBS.562, 24 h, 24 hours) it was 75 µg/mL (≈ 205 µM); against Candida albicans CBS.562 (CBS.562, 48 h, 48 hours), 150 µg/mL (≈ 409 µM); in assay [2] (CBS.12648, 72 h, 72 hours), 75 µg/mL (≈ 205 µM); in assay [2] (CBS.12648, 144 h, 144 hours), 150 µg/mL (≈ 409 µM). Also, the MIC is 150 µg/mL (≈ 409 µM) in assay [2] (CBS.12648, 288 h, 288 hours); 100 µg/mL (≈ 273 µM) in assay [3] (CBS.31948, 72 h, 72 hours); 150 µg/mL (≈ 409 µM) in assay [3] (CBS.31948, 144 h, 144 hours); 150 µg/mL (≈ 409 µM) in assay [3] (CBS.31948, 288 h, 288 hours); 25 µg/mL (≈ 68.2 µM) in assay [4] (CBS.34035, 72 h, 72 hours); 25 µg/mL (≈ 68.2 µM) in assay [4] (CBS.34035, 144 h, 144 hours). The MIC in assay [4] (CBS.34035, 288 h, 288 hours) turned out to be 25 µg/mL (≈ 68.2 µM); in assay [5] (CBS.30338, 72 h, 72 hours), 75 µg/mL (≈ 205 µM); in assay [5] (CBS.30338, 144 h, 144 hours), 75 µg/mL (≈ 205 µM); in assay [5] (CBS.30338, 288 h, 288 hours), 150 µg/mL (≈ 409 µM); in assay [6] (setting [8]), 75 µg/mL (≈ 205 µM); in assay [6] (setting [9]) it was 100 µg/mL (≈ 273 µM). The MIC stood at 100 µg/mL (≈ 273 µM) in assay [6] (setting [10]), 100 µg/mL (≈ 273 µM) in assay [7] (setting [11]), 150 µg/mL (≈ 409 µM) in assay [7] (setting [12]) and 150 µg/mL (≈ 409 µM) in assay [7] (setting [13]).
As to `O=C1CC(S(=O)(=O)C2CCCCC2)C(=O)N1` (stereo not drawn) [3-Cyclohexyl-sulfonyl-pyrrolidine-2,5-dione], the MIC in assay [3] (CBS.31948, 72 h, 72 hours) came out at 50 µg/mL (≈ 204 µM); in assay [3] (CBS.31948, 144 h, 144 hours), 50 µg/mL (≈ 204 µM); in assay [3] (CBS.31948, 288 h, 288 hours), 50 µg/mL (≈ 204 µM); in assay [4] (CBS.34035, 72 h, 72 hours) it was 150 µg/mL (≈ 611 µM); in assay [4] (CBS.34035, 144 h, 144 hours), 150 µg/mL (≈ 611 µM); in assay [4] (CBS.34035, 288 h, 288 hours), 150 µg/mL (≈ 611 µM). The MIC in assay [5] (CBS.30338, 72 h, 72 hours) was 50 µg/mL (≈ 204 µM); in assay [5] (CBS.30338, 144 h, 144 hours), 75 µg/mL (≈ 306 µM); in assay [5] (CBS.30338, 288 h, 288 hours) it was 75 µg/mL (≈ 306 µM); in assay [6] (setting [8]) it was 50 µg/mL (≈ 204 µM); in assay [6] (setting [9]), 50 µg/mL (≈ 204 µM); in assay [6] (setting [10]), 75 µg/mL (≈ 306 µM). Besides, the MIC in assay [6] (setting [14]) worked out at 50 µg/mL (≈ 204 µM); in assay [7] (setting [11]), 25 µg/mL (≈ 102 µM); in assay [7] (setting [12]) it was 25 µg/mL (≈ 102 µM); in assay [7] (setting [13]), 25 µg/mL (≈ 102 µM); in assay [7] (setting [15]), 25 µg/mL (≈ 102 µM).
For `COC(=O)c1ccc(N2C(=O)CC(S(=O)(=O)C3CCCCC3)C2=O)cc1OC(C)=O` (stereo not drawn) [Example 7, 1-(3-Acetoxy-4-methoxycarbonyl-phenyl)-3-cyclohexyl-sulfonyl-pyrrolidine-2,5-dione], the MIC in assay [2] (CBS.12648, 72 h, 72 hours) turned out to be 200 µg/mL (≈ 457 µM); in assay [2] (CBS.12648, 144 h, 144 hours), 200 µg/mL (≈ 457 µM); in assay [2] (CBS.12648, 288 h, 288 hours), 200 µg/mL (≈ 457 µM); in assay [3] (CBS.31948, 72 h, 72 hours) it was 50 µg/mL (≈ 114 µM); in assay [3] (CBS.31948, 144 h, 144 hours), 50 µg/mL (≈ 114 µM); in assay [3] (CBS.31948, 288 h, 288 hours), 100 µg/mL (≈ 229 µM). The MIC was 50 µg/mL (≈ 114 µM) in assay [4] (CBS.34035, 72 h, 72 hours); 100 µg/mL (≈ 229 µM) in assay [4] (CBS.34035, 144 h, 144 hours); 150 µg/mL (≈ 343 µM) in assay [4] (CBS.34035, 288 h, 288 hours); 25 µg/mL (≈ 57.1 µM) in assay [5] (CBS.30338, 72 h, 72 hours); 25 µg/mL (≈ 57.1 µM) in assay [5] (CBS.30338, 144 h, 144 hours); 50 µg/mL (≈ 114 µM) in assay [5] (CBS.30338, 288 h, 288 hours). Moreover, the MIC in assay [6] (setting [8]) worked out at 2.5 µg/mL (≈ 5.71 µM); in assay [6] (setting [9]), 2.5 µg/mL (≈ 5.71 µM); in assay [6] (setting [10]), 2.5 µg/mL (≈ 5.71 µM); in assay [6] (setting [14]) it was 2.5 µg/mL (≈ 5.71 µM); in assay [7] (setting [11]), 10 µg/mL (≈ 22.9 µM); in assay [7] (setting [12]) it was 10 µg/mL (≈ 22.9 µM). The MIC in assay [7] (setting [13]) and in assay [7] (setting [15]) was 10 µg/mL (≈ 22.9 µM) each time.
